Read-outs that look alike come from different tables or passages of the source.
Experiments:
[1] = system: Human lymphoma cells, KARPAS 299 xenograft; assay: KARPAS 299 xenograft tumor growth in SCID mice; type: in vivo; details: given orally, once daily for 3 weeks, FIG. 1
Procedure: Cpd. Nos. 5 and 6 were dissolved in a solution of 98% PEG200: 2% TPGS (Sigma).
Human lymphoma cells, KARPAS 299 were maintained at 37° C., 95% air, 5% carbon dioxide in RPMI 1640 medium supplemented with 10% Fetal Bovine Serum, 100 units/ml of penicillin and 100 units/ml of streptomycin (GIBCO™, Invitrogen Corp.) and passaged twice weekly.
Tumor cells for xenografts were washed twice in PBS, and re-suspended in an ice cold mixture of 1:1 PBS and Matrigel (BD Biosciences, Invitrogen Corp.) for a final Matrigel protein concentration of 5 mg/ml. Cells at 5×10^6 cells in 0.1 ml were injected subcutaneously (s.c.) into the flank region of each mouse. All tumors were inoculated into SCID mice (strain:236 C.B-17 SCID, Charles River).
The size of tumors growing in the mice was measured in two dimensions using calipers. Tumor volume (mm^3)=(AxB^2)/2 where A and B are the tumor length and width (in mm), respectively. During treatment, tumor volume and body weight were measured three times a week. After the treatment was stopped, tumor volume and body weight was measured at least once a week.
Tumors were not allowed to exceed 10% of the animal's total body weight. If an animal had two or more tumors the total weight of all tumors were not allowed to exceed 10% of the animal's total body weight. […]

LTK = target: T1, LTK (Homo sapiens, UniProt P29376); assay: KINOMEscan kinase panel, LTK; type: binding
T1 construct: purchased LeadHunter Discovery Services (currently DiscoverX Corporation), KINOMEscan screening service
Excerpt: (§1) Cpd. No. 5 was screened for its activity against a panel of human kinases using the KINOMEscan™ screening platform from LeadHunter Discovery Services (currently DiscoverX Corporation (Fremont, Calif. 94538, United States). See Table 7.

IGF1R = target: T2, IGF1R (Homo sapiens, UniProt P08069); assay: KINOMEscan kinase panel, IGF1R; type: binding
T2 construct: purchased LeadHunter Discovery Services (currently DiscoverX Corporation), KINOMEscan screening service
Excerpt: as §1

LRRK2 = target: T3, LRRK2 (Homo sapiens, UniProt Q5S007); assay: KINOMEscan kinase panel, LRRK2; type: binding
T3 construct: purchased LeadHunter Discovery Services (currently DiscoverX Corporation), KINOMEscan screening service
Excerpt: as §1

INSR = target: T4, INSR (Homo sapiens, UniProt P06213); assay: KINOMEscan kinase panel, INSR; type: binding
T4 construct: purchased LeadHunter Discovery Services (currently DiscoverX Corporation), KINOMEscan screening service
Excerpt: as §1

ROS1 = target: T5, ROS1 (Homo sapiens, UniProt P08922); assay: KINOMEscan kinase panel, ROS1; type: binding
T5 construct: purchased LeadHunter Discovery Services (currently DiscoverX Corporation), KINOMEscan screening service
Excerpt: as §1

H3122 cells (EML4-ALK) = assay: Cell growth inhibition assay (WST-8), H3122; type: cell-based; details: Homo sapiens, NCI-H3122, read-out: H3122 (nM) (EML4-ALK), 50% of cell growth inhibition (IC50), WST-8, versus DMSO control
Procedure: H3122 and Kappas-299 cells were purchased from American Type Culture Collection (Manassas, Va., USA) and were used within 2 months after initiating from original stocks. All cell lines were cultured as recommended. For cell growth inhibition assay, cells were treated with different concentrations of the tested compounds, diluted from stock to culture media containing a 0.2% DMSO as the final concentration. Cell viability was determined using the WST-8 cell proliferation assay kit (Dojindo Molecular Technologies) according to manufacturer's instructions. Three independent experiments in triplicates were performed.

FER = target: T6, FER (Homo sapiens, UniProt P16591); assay: KINOMEscan kinase panel, FER; type: binding
T6 construct: purchased LeadHunter Discovery Services (currently DiscoverX Corporation), KINOMEscan screening service
Excerpt: as §1

ALK G1202R = ALK G1202R (Homo sapiens, UniProt Q9UM73, G1202R); assay: Mutant ALK kinase inhibition, Lance TR-FRET, G1202R; type: biochemical
Procedure: Mutated ALK proteins were expressed in SF9 insect cells with N-terminal tags cleaved after purification. […] The kinase reaction was performed in 50 mM HEPES (pH 7.5) with 1 mM EGTA, 1 mM MgCl2, and 2 mM DTT, 0.01% Tween-20 added right before the assay. […] The final mixture was incubated in the dark for 1 hour before the plate was read on a Tecan Infinite M-1000 multi-mode plate reader (Tecan, Durham N.C.) with an excitation wavelength of 320 nm.

ALK L1196M = target: T7, ALK L1196M (Homo sapiens, UniProt Q9UM73, L1196M); assay: Mutant ALK kinase inhibition, Lance TR-FRET, L1196M; type: biochemical; details: Table 5; ATP 100 μM
T7 construct: made in house; host or cells: SF9 insect cells
Procedure: The cytoplasmic domain (amino acid 1058-1620) of wild-type human ALK protein expressed as N-terminal GST-fusion protein was purchased from Carna Biosciences, Inc (Japan). Mutated ALK proteins were expressed in SF9 insect cells with N-terminal tags cleaved after purification. Kinase activities of all enzymes were assessed using a Lance® TR-FRET assay kit from Perkin Elmer Life Sciences (Waltham, Mass.). 2.5 μL of compound solution and 5 μL of protein solution were added into a black low volume 384 well microtiter plate which was incubated for 30 minutes with gentle shaking at room temperature, followed by adding 2.5 μL of fluorescently labeled peptide substrate (ULight™-IRS-1 (Tyr983) Peptide) and ATP mixture solution. The kinase reaction was performed in 50 mM HEPES (pH 7.5) with 1 mM EGTA, 1 mM MgCl2, and 2 mM DTT, 0.01% Tween-20 added right before the assay. Final concentrations of ATP, substrates, and DMSO were 100 μM, 20 nM, and 0.5%, respectively. […] The final mixture was incubated in the dark for 1 hour before the plate was read on a Tecan Infinite M-1000 multi-mode plate reader (Tecan, Durham N.C.) with an excitation wavelength of 320 nm. Emission intensities were measured at both 620 and 665 nm with the intensity ratio between 665 and 620 nm corresponding to the peptide substrate phosphorylation. […]

FES = target: T8, FES (Homo sapiens, UniProt P07332); assay: KINOMEscan kinase panel, FES; type: binding
T8 construct: purchased LeadHunter Discovery Services (currently DiscoverX Corporation), KINOMEscan screening service
Excerpt: as §1

Compound: Cc1cc(Nc2ncc(Cl)c(Nc3ccccc3S(=O)(=O)C(C)C)n2)c(OC(C)C)cc1C1=CCN(C2CCOCC2)CC1 [Cpd. No. 5, 5-chloro-N2-(2-isopropoxy-5-methyl-4-(1-(tetrahydro-2H-pyran-4-yl)-1,2,3,6-tetrahydropyridin-4-yl)phenyl)-N4-(2-(isopropylsulfonyl)phenyl)pyrimidine-2,4-diamine]
- tumor growth in the KARPAS 299 xenograph model [1]: inhibit tumor growth
- Kd (LTK): 0.62 nM
- Kd (IGF1R): 9 nM
- Kd (LRRK2): 6.5 nM
- Kd (INSR): 54 nM
- Kd (ROS1): 0.73 nM
- IC50 (H3122 cells (EML4-ALK)): 27 nM
- Kd (FER): 11 nM
- IC50 (ALK G1202R; Table 5, ATP 100 μM, read-out: IC50 (nM), G1202R): 9.2 nM
- IC50 (ALK G1202R; Table 6, comparison with known ALK inhibitors, read-out: G1202R IC50): 9.2 nM
- IC50 (ALK L1196M): 0.73 nM
- Kd (FES): 12 nM
